Data taken from patent publication US10689331B2, “IDO inhibitors” (Bristol-Myers Squibb Company, priority 2015, dated 2020).

target: T1, human IDO1 (Homo sapiens, UniProt P14902); assay: HEK Human IDO-1 inhibition assay (kynurenine readout, Ehrlich reagent, absorbance 490 nm); assay type: cell-based; conditions: human IDO1/HEK293 cells, incubated 20 hours with compound; 500 nM reference standard = 100% inhibition
T1 construct: expressed in transfected cells
In short: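 HEK293 cells stably expressing human IDO1, treated with compound for 20 h at 37 °C in phenol red-free RPMI/10% FBS. Kynurenine detected after TCA (0.2% final, 50 °C, 30 min) by Ehrlich reagent absorbance at 490 nm; IC50 normalised to 500 nM reference standard (100%) and DMSO (0%).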

T1 sequence (P14902 whole entry): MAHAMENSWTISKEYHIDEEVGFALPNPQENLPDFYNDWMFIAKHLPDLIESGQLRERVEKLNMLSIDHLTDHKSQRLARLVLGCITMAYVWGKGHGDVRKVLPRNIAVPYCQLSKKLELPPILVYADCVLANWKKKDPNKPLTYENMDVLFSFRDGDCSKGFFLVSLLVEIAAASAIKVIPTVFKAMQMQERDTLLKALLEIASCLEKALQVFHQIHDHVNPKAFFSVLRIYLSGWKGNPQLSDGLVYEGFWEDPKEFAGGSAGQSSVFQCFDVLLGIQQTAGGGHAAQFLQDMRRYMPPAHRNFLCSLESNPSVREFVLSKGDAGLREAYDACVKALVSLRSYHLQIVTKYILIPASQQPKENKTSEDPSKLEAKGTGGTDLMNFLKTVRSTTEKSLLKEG

IC50 | Structure (SMILES)
< 100 nM | CC(C)CN(c1ccc(OC(C)c2ncco2)cc1NC(=O)Nc1ccc(Cl)cc1F)C1CCCCC1 (centres unmarked) [Example 157, 1-(4-chloro-2-fluorophenyl)-3-(2-(cyclohexyl(isobutyl)amino)-5-(1-(oxazol-2-yl)ethoxy)phenyl)urea]
< 100 nM | CCCN(Cc1ccccc1)c1ccc(OCC(=O)O)cc1NC(=O)Nc1ccc(Cl)cc1F [Example 158, 2-(4-(benzyl(propyl)amino)-3-(3-(4-chloro-2-fluorophenyl)ureido)phenoxy)acetic acid]
≥ 100 nM | CCCN(Cc1ccccc1)c1ccc(OCC(=O)O)cc1NC(=O)Nc1ccc(C)cc1 [Example 159, 2-(4-(benzyl(propyl)amino)-3-(3-(p-tolyl)ureido)phenoxy)acetic acid]
≥ 100 nM | CCCN(Cc1ccccc1)c1ccc(OCC(=O)O)cc1NC(=O)Nc1ccc(OC(F)(F)F)cc1 [Example 160, 2-(4-(benzyl(propyl)amino)-3-(3-(4-(trifluoromethoxy)phenyl)ureido)phenoxy)acetic acid]
≥ 100 nM | CCCN(Cc1ccccc1)c1ccc(OCC(=O)O)cc1NC(=O)Nc1ccc(OCC)cc1 [Example 161, 2-(4-(benzyl(propyl)amino)-3-(3-(4-ethoxyphenyl)ureido)phenoxy)acetic acid]
≥ 100 nM | CCCN(Cc1ccccc1)c1ccc(OCC(=O)O)cc1NC(=O)Nc1ccc(C(F)(F)F)cc1 [Example 162, 2-(4-(benzyl(propyl)amino)-3-(3-(4-(trifluoromethyl)phenyl)ureido)phenoxy)acetic acid]
< 100 nM | CC(C)CN(Cc1ccc(Cl)cc1)c1ccc(OCC(=O)O)cc1NC(=O)Nc1ccc(Cl)cc1F [Example 163, 2-(3-(3-(4-chloro-2-fluorophenyl)ureido)-4-((4-chlorobenzyl)(isobutyl)amino)phenoxy)acetic acid]
< 100 nM | CCCN(Cc1ccc(Cl)cc1)c1ccc(OCC(=O)O)cc1NC(=O)Nc1ccc(Cl)cc1F [Example 164, 2-(3-(3-(4-chloro-2-fluorophenyl)ureido)-4-((4-chlorobenzyl)(propyl)amino)phenoxy)acetic acid]
≥ 100 nM | CCCN(Cc1ccccc1)c1ccc(OCC(=O)O)cc1NC(=O)Cc1ccc(Cl)cc1F [Example 165, 2-(4-(benzyl(propyl)amino)-3-(2-(4-chloro-2-fluorophenyl)acetamido)phenoxy)acetic acid]
≥ 100 nM | CCCN(Cc1ccccc1)c1ccc(OCC(=O)O)cc1NC(=O)Cc1ccc(C)cc1 [Example 166, 2-(4-(benzyl(propyl)amino)-3-(2-(p-tolyl)acetamido)phenoxy)acetic acid]
≥ 100 nM | CC(C)CN(Cc1ccc(Cl)cc1)c1ccc(OCC(=O)O)cc1NC(=O)Cc1ccc(Cl)cc1F [Example 167, 2-(3-(2-(4-chloro-2-fluorophenyl)acetamido)-4-((4-chlorobenzyl)(isobutyl)amino)phenoxy)acetic acid]
